Laboratory results from article PMC10609143, “Inhibitory Mechanisms of Lekethromycin in Dog Liver Cytochrome P450 Enzymes Based on UPLC-MS/MS Cocktail Method” (Molecules, 2023).
Read-outs that look alike come from different tables or passages of the source.

Key:
[1] = tested on: CYP2D6; conditions: in vitro drug metabolism studies; cited from earlier work
[2] = tested on: CYP1A2; parameters: method as in PMID 12433797; conditions: in vitro drug metabolism studies; cited from earlier work
[3] = Enzyme kinetic study of probe substrate in dog liver microsomes; type: in vitro ADME; conditions: pH 7.4, probe testosterone (6β-hydroxylation), 15 min, 0.2 mg/mL, n = 3, read-out: Km (Michaelis–Menten constant)
Method: (§1) The CYP450 enzymatic activities were characterized by their probe substrate reactions. Incubation mixtures were prepared in a total volume of 200 μL, which consisted of PBS (pH = 7.4), NADPH, probe substrates, and various concentrations of tested compounds. NADPH was added to initiate the reaction after a 5 min preincubation period at 37 °C in a thermos shaker. Of note, the volume of the final organic solvent in the incubation system should be below <1% (v/v). All experiments were performed in triplicate.
(§2) The Vmax and Km were calculated using GraphPad Prism v.8.0.2 (GraphPad software Inc., San Diego, CA, USA) via the Michaelis–Menten kinetic model. In addition, incubation times of 0–60 min were examined for mixed probe substrates. Various DLM protein concentrations (0.05–1 mg/mL) in the incubation mixture were carried out.
(§3) Then, 400 μL of cool ACN containing the 20 μL internal standard was added to terminate the reaction. Samples were vortexed for 2 min and centrifuged at 14,000 rpm for 10 min (4 °C). Next, the supernatant was steamed under nitrogen (40 °C) until dry. Then, it was dissolved with 200 µL of ACN: H2O = 80:20 (v/v). Finally, after filtering with a 0.22 μm membrane, an aliquot of 5 µL was injected into the UPLC-MS/MS for analysis.

[4] = tested on: CYP3A4; experiment: as above; type: in vitro ADME; conditions: testosterone 6β-hydroxylation, n = 3
Method: as §1, §2, §3

[5] = tested on: CYP3A4; conditions: dog liver microsomes, literature; cited from earlier work
[6] = tested on: CYP3A4; conditions: rat; cited from earlier work
[7] = tested on: CYP3A4; conditions: mini-pig; cited from earlier work
[8] = tested on: CYP2A6; experiment: Enzyme kinetic study of probe substrate in dog liver microsomes; type: in vitro ADME
Method: (§4) The CYP450 enzymatic activities were characterized by their probe substrate reactions. […] NADPH was added to initiate the reaction after a 5 min preincubation period at 37 °C in a thermos shaker. Of note, the volume of the final organic solvent in the incubation system should be below <1% (v/v) [21]. All experiments were performed in triplicate.

[9] = tested on: CYP2A6; parameters: method as in PMID 11307970; conditions: dog liver microsomes, literature; cited from earlier work
[10] = substrate: COc1ccc2c(c1)[C@]13CCCC[C@@H]1[C@H](C2)N(C)CC3; experiment: cells, lysate or membranes named; conditions: other: dextromethorphan O-demethylation, dog liver microsomes, 15 min, 0.2 mg/mL, n = 3; pH 7.4
Method: as §4

[11] = substrate: CCOc1ccc(NC(C)=O)cc1; experiment: cells, lysate or membranes named; conditions: other: phenacetin O-deethylation, dog liver microsomes, 15 min, 0.2 mg/mL, n = 3; pH 7.4
[12] = substrate: CC(NC(C)(C)C)C(=O)c1cccc(Cl)c1; experiment: Enzyme kinetic study of probe substrate in dog liver microsomes; type: in vitro ADME; conditions: other: bupropion hydroxylation, 15 min, 0.2 mg/mL, n = 3, pH 7.4
Method: as §4

For `COc1ccc2c(c1)[C@]13CCCC[C@@H]1[C@H](C2)N(C)CC3` [DEX, dextromethorphan], the Km [1] is given as 2 to 10 µM.

In the case of `CCOc1ccc(NC(C)=O)cc1` [PH, phenacetin], the Km [2] is given as 10 to 50 µM.

In the case of `C[C@]12CC[C@H]3[C@@H](CCC4=CC(=O)CC[C@@]43C)[C@@H]1CC[C@@H]2O` [TS, testosterone], the Km at 15 min [3] is given as 85.2 µM, the “Vmax (maximum rate of an enzyme-catalyzed reaction)” value [4] is given as 1.49 nmol/min/mg protein and the Km [5] is given as 192 µM. The Vmax [5] was 68–180 pmol/min/mg/microsomal protein, the Km [6] was 84 µM and the Km [7] was 79 µM.

For `O=c1ccc2ccccc2o1` [CAN, coumarin], the “Vmax (maximum rate of an enzyme-catalyzed reaction)” value ([8]; coumarin hydroxylation, n = 3) is listed as 0.034 nmol/min/mg protein, the Km at 15 min ([8]; pH 7.4, probe coumarin (hydroxylation), 15 min, 0.2 mg/mL, n = 3, read-out: Km (Michaelis–Menten constant)) is listed as 0.41 µM and the Km [9] is listed as 2 to 4.3 µM. For the same molecule, the Vmax [9] was 1488–1656 pmol/min/mg/microsomal protein.

B1: CYP2D6 (Canis lupus familiaris) (protein)
chain: MGLLTGDTLGPLAVAVAIFLLLVDLMHRRRRWATRYPPGPTPVPMVGNLLQMDFQEPICYFSQLQGRFGNVFSLELAWTPVVVLNGLEAVREALVHRSEDTADRPPMPIYDHLGLGPESQGLFLARYGRAWREQRRFSLSTLRNFGLGRKSLEQWVTEEASCLCAAFAEQAGRPFGPGALLNKAVSNVISSLTYGRRFEYDDPRLLQLLELTQQALKQDSGFLREALNSIPVLLHIPGLASKVFSAQKAIITLTNEMIQEHRKTRDPTQPPRHLIDAFVDEIEKAKGNPKTSFNEENLCMVTSDLFIAGMVSTSITLTWALLLMILHPDVQRRVQQEIDEVIGREQLPEMGDQTRMPFTVAVIHEVQRFGDIVPLGVPHMTSRDTEVQGFLIPKGTTLITNLSSVLKDEKVWKKPFRFYPEHFLDAQGHFVKHEAFMPFSAGRRVCLGEPLARMELFLFFTCLLQRFSFSVPAGQPRPSDHGVFTFLKVPAPFQLCVEPR
B1 gave a Km [10] of 6.33 µM and a Vmax [10] of 0.00616 µmol/min/mg.

B2: CYP1A2 (Canis lupus familiaris) (protein)
chain: MALSQMATGLLLASTIFCLILWVVKAWQPRLPKGLKSPPGPWGWPLLGNVLTLGKSPHLALSRLSQRYGDVLQIRIGSTPVLVLSGLDTIRQALVRQGDDFKGRPDLYSLSLITDSQSMSFSPDSGPVWAAGRRLAQNALNTFSIASDPASSCSCYLEEHVSKEAEALLSRLQEQMAEVGRFDPYNQVLLSVANVIGAMCFGHHFSQRSEEMLPLLMSSSDFVETVSSGNPLDFFPILQYMPNSALQRFKNFNQTFVQSLQKIVQEHYQDFDERSVQDITGALLKHNEKSSRASDGHIPQEKIVNLINDIFGAGFDTVTTAISWSLMYLVANPEIQRQIQKELDTVIGRARQPRLSDRPQLPLMEAFILEIFRHTSFVPFTIPHSTTKDTTLKGFYIPKECCVFINQWQVNHDQQVWGDPFAFRPERFLTADGTTINKTLSEKVMLFGMGKRRCIGEVLAKWEIFLFLAILLQRLEFSVPAGVKVDLTPIYGLTMKHTRCEHVQARPRFSIK
Molecule B2 has a Km [11] of 5.39 µM and a Vmax [11] of 0.00022 µmol/min/mg.

B3: CYP2B6 (Canis lupus familiaris) (protein)
chain: MELSVLLLLALLTGLLLLMARGHPKAYGHLPPGPRPLPILGNFLQMDRKGLLKSFLRLQEKYGDVFTVYLGPRRTVMLCGIDAIREALVDNAEAFSGRGKIAVVEPVFQGYGVVFANGERWKTLRRFSLATMRDFGMGKRSVEERIQEEAQCLVEELRKTEGVLQDPTFFFHSMTANIICSIVFGKRFGYKDPEFLRLMNLFYVSFALISSFSSQMFELFHSFLKYFPGTHRQVYNNLQEIKAFIARMVEKHRETLDPSAPRDFIDAYLIRMDKEKAEPSSEFHHRNLIDTALSLFFAGTETTSTTLRYGFLLMLKYPHIAERIYKEIDQVIGPHRLPSLDDRAKMPYTDAVIHEIQRFGDLLPIGVPHMVTKDICFRGYIIPKGTEVFPILHSALNDPHYFEKPDVFNPDHFLDANGALKKNEAFIPFSIGKRICLGEGIARMELFLFFTTILQNFSVASPMAPEDIDLTPQEIGVGKLPPVYQISFLSRGGC
notes: from tissue; host or cells: dog liver microsomes (DLM)
Work on B3 yielded a Km [12] of 9.15 µM and a Vmax [12] of 0.00143 µmol/min/mg.
